Consider 36 molecules from US10000473B2, “Indazole derivatives useful as glucagon receptor antagonists” (Janssen Pharmaceutica NV, priority 2016, dated 2018).

Each structure is given as a SMILES string.

In this assay the target is T1, human GCGR (Homo sapiens, UniProt P47871).
T1 construct: expressed in transfected cells; host or cells: HEK293 (hGluc-1HEK), pcDNA3.1, G418 selection
T1 sequence (P47871 26-477): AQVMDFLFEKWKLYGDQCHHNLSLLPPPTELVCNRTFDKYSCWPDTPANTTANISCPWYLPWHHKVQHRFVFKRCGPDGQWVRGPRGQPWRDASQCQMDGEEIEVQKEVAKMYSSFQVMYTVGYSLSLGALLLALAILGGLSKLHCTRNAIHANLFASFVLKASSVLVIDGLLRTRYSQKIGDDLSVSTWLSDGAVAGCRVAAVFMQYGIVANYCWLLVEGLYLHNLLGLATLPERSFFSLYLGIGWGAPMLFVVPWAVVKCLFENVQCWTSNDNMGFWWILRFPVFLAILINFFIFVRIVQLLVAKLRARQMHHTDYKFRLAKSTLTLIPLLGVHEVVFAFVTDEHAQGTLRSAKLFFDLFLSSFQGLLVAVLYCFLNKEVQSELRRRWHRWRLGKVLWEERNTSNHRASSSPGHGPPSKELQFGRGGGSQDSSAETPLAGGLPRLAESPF
As to the kind of experiment: Cellular functional assay, cAMP readout (glucagon-stimulated cAMP, LANCE TR-FRET). The following applies: HEK293 cells stably expressing full-length human GCGR; glucagon 100 pM; IC50 converted to Ki; read-out: Inhibition of cAMP Ki. It counts as cell-based. Here is the method:
IC50 Values in Cellular Functional Assays: cAMP Readout
Full-length human GCGR (Accession Number: NM000160) subcloned into pcDNA3.1 was stably transfected into HEK293 cells (hGluc-1HEK) and maintained under G418 selection (500 μg/mL). Cell cultures were maintained in DMEM/F12 media supplemented with 10% FBS and 1% GlutaMax™ Supplement (Available from ThermoFisher Scientific, catalog #35050061). Glucagon stimulated cAMP was quantified using LANCE technology as per manufacturer instructions. On the day of the experiment, spent media was removed and cells were washed with Hank's Buffered Saline solution (HBSS), and cells harvested with non-enzymatic cell dissociation solution, then washed once with HBSS. Cells were re-suspended in stimulation buffer at a concentration of 0.83×10^6 cells/ml and cAMP detection antibody was added. 6 μl/well of this solution was then dispensed in a 384 well plate (cell density 5000 cells/well). Test compound was serially diluted in DMSO and 50 nl were dispensed on top of the cell solution and allowed to incubate for 30 minutes. 6 μl of a 2× glucagon solution (final concentration in assay 100 pM) was then added and the reaction was terminated after 5 minutes with the addition of detection mix. The resulting mixture was incubated, protected from light for 1.5 h. cAMP levels were quantified by TR-FRET in an EnVision instrument against a known standard. IC50's were generated by using a non-linear regression macro driven in Excel and converted to Ki values.
As for `Cc1ccc(-c2ccc3nn(C(CC(C)C)c4ccc(C(=O)NCCC(=O)O)cc4)cc3c2C)c(C)c1` (stereo not drawn) [Compound #143, 3-(4-(1-(5-(2,4-Dimethylphenyl)-4-methyl-2H-indazol-2-yl)-3-methylbutyl)benzamido)propanoic acid], the Ki is 0.024 µM. The figure for `Cc1cc(Cl)ccc1-c1ccc2c(cnn2C(CCC2CCCCC2)c2ccc(C(=O)NCCC(=O)O)nc2)c1` (stereo not drawn) [compound 210] is 0.365 µM; for `CC(C)(F)CC(c1ccc(C(=O)NCCC(=O)O)cc1)n1ncc2cc(-c3ccc(C(F)(F)F)cc3)ccc21` (stereo not drawn) [Compound #185, 3-(4-(3-Fluoro-3-methyl-1-(5-(4-(trifluoromethyl)phenyl)-1H-indazol-1-yl)butyl)benzamido)propanoic acid] it is 0.43 µM; for `CC(C)CC(c1ccc(C(=O)NCCC(=O)O)cc1)n1cc2cc(-c3cc4cc(F)ccc4s3)ccc2n1` (stereo not drawn) [compound 129] it is 0.088 µM. For `Cc1cc(Cl)ccc1-c1ccc2c(cnn2C(CCC2CCCCC2)c2ccc(C(=O)NCCC(=O)O)cc2)c1` (stereo not drawn) [compound 157], the Ki came out at 0.25 µM. The figure for `Cc1cc(C(F)(F)F)ccc1-c1cc2cnn(C(CC(C)C)c3ccc(C(=O)NCCC(=O)O)nc3)c2cc1Cl` (stereo not drawn) [Compound #146, 3-[[5-[1-[6-Chloro-5-[2-methyl-4-(trifluoromethyl)phenyl]indazol-1-yl]-3-methyl-butyl]pridine-2-carbonyl]amino]propanoic acid] is 0.16 µM.

Take `CC(C)CC(c1ccc(C(=O)NCCC(=O)O)cc1)n1cc2cc(-c3cc4ccccc4o3)ccc2n1` (stereo not drawn) [Compound #13]: the inhibition constant (Ki) was determined as 0.076 µM. The figure for `Cc1c(-c2ccc(C(F)(F)F)cc2Cl)ccc2c1cnn2C(CC(C)C)c1ccc(C(=O)NCCC(=O)O)nc1` (stereo not drawn) [Compound #198, 3-(5-(1-(5-(2-Chloro-4-(trifluoromethyl)phenyl)-4-methyl-1H-indazol-1-yl)-3-methylbutyl)picolinamido)propanoic acid] is 0.06 µM. Under `CC(C)CC(c1ccc(C(=O)NCCC(=O)O)cc1)n1ncc2cc(-c3ccc4ccccc4c3)ccc21` (stereo not drawn) [compound 71] stands 0.19 µM.

For the molecule `Cc1cc(C(F)(F)F)ccc1-c1cc2cn(C(CC(C)C)c3ccc(C(=O)NCCC(=O)O)nc3)nc2cc1Cl` (stereo not drawn) [Compound #176, 3-[[5-[1-[6-Chloro-5-[2-methyl-4-(trifluoromethyl)phenyl]indazol-2-yl]-3-methyl-butyl]pyridine-2-carbonyl]amino]propanoic acid], the inhibition constant (Ki) was determined as 0.05 µM. The figure for `Cc1cc(C(F)(F)F)ccc1-c1ccc2nn([C@@H](CC(C)C)c3ccc(C(=O)NCCC(=O)O)cc3)cc2c1C` [Compound #156, 3-[[4-[(1S)-3-Methyl-1-[4-methyl-5-[2-methyl-4-(trifluoromethyl)phenyl]indazol-2-yl]butyl]benzoyl]amino]propanoic acid] is 0.022 µM; for `CC(C)CC(c1ccc(C(=O)NCCC(=O)O)nc1)n1ncc2cc(-c3cc(Cl)cc(Cl)c3)ccc21` (stereo not drawn) [compound 119] it is > 2.6 µM; for `CC(C)(C)c1ccc(-c2ccc3c(cnn3C(CC3CCCCC3)c3ccc(C(=O)NCCC(=O)O)cc3)c2)cc1` (stereo not drawn) [Compound #24, 3-(4-(1-(5-(4-(tert-Butyl)phenyl)-1H-indazol-1-yl)-2-cyclohexylethyl)benzamido)propanoic acid] it is 0.114 µM. Take `CC(C)CC(c1ccc(C(=O)NCCC(=O)O)cc1)n1ncc2cc(-c3cnn(C)c3)ccc21` (stereo not drawn) [Compound #12, 3-(4-(3-Methyl-1-(5-(1-methyl-1H-pyrazol-4-yl)-1H-indazol-1-yl)butyl)benzamido)propanoic acid]: the inhibitory constant (Ki) worked out at 2.3 µM. In the case of `O=C(O)CCNC(=O)c1ccc(C(CC2CCCC2)n2cc3cc(-c4ccc(C(F)(F)F)cc4)ccc3n2)cc1` (stereo not drawn) [compound 254], the inhibition constant Ki was 0.09 µM. Under `Cc1cc(C(F)(F)F)ccc1-c1ccc2nn(C(CC(C)C)c3ccc(C(=O)NCCC(=O)O)nc3)cc2c1C` (stereo not drawn) [Compound #155, 3-(5-(3-Methyl-1-(4-methyl-5-(2-methyl-4-(trifluoromethyl)phenyl)-2H-indazol-2-yl)butyl)picolinamido)propanoic acid] stands 0.009 µM.

As to `CC(C)CC(c1ccc(C(=O)NCCC(=O)O)nc1)n1cc2cc(-c3ccc(C(F)(F)F)cc3Cl)c(Cl)cc2n1` (stereo not drawn) [Compound #33, 3-[[5-[1-[6-Chloro-5-[2-chloro-4-(trifluoromethyl)phenyl]indazol-2-yl]-3-methyl-butyl]pyridine-2-carbonyl]amino]propanoic acid], the inhibition constant Ki turned out to be 0.07 µM. Under `O=C(O)CCNC(=O)c1ccc(C(CC2CCCCC2)n2ncc3cc(-c4ccc(C(F)(F)F)cc4)ccc32)cc1` (stereo not drawn) [compound 131] stands 0.31 µM. Under `Cc1cc(C(F)(F)F)ccc1-c1cc2cnn(C(CC(C)C)c3ccc(C(=O)NCCC(=O)O)cc3)c2cc1C` (stereo not drawn) [Compound #93, 3-[[4-[3-Methyl-1-[6-methyl-5-[2-methyl-4-(trifluoromethyl)phenyl]indazol-1-yl]butyl]benzoyl]amino]propanoic acid] stands 0.036 µM; under `CCCCCCC(c1ccc(C(=O)NCCC(=O)O)nc1)n1cc2cc(-c3ccc(Cl)cc3C)ccc2n1` (stereo not drawn) [compound 203], 0.075 µM; under `CC(C)C[C@@H](c1ccc(C(=O)NCCC(=O)O)cc1)n1ncc2cc(-c3ccc(C(F)(F)F)cc3Cl)ccc21` [Compound #90, 3-[[4-[(1S)-1-[5-[2-Chloro-4-(trifluoromethyl)phenyl]indazol-1-yl]-3-methyl-butyl]benzoyl]amino]propanoic acid], 0.085 µM. The figure for `COc1ccc2cc(-c3ccc4c(cnn4C(CC(C)C)c4ccc(C(=O)NCCC(=O)O)cc4)c3)ccc2c1` (stereo not drawn) [compound 222] is 0.8 µM.

As for `CC(C)CC(c1ccc(C(=O)NCCC(=O)O)nc1)n1ncc2cc(-c3cc4ccccc4s3)ccc21` (stereo not drawn) [compound 48], the inhibition constant (Ki) was found to be 0.47 µM. Turning to `O=C(O)CCNC(=O)c1ccc(C(C2CCCCC2)n2cc3cc(-c4ccc(C(F)(F)F)cc4)ccc3n2)cc1` (stereo not drawn) [compound 136], the Ki stood at 0.135 µM. Under `CC(C)CC(c1ccc(C(=O)NCCC(=O)O)nc1)n1ncc2cc(-c3cc4ccccc4o3)ccc21` (stereo not drawn) [Compound #79, 3-(5-(1-(5-(Benzofuran-2-yl)-1H-indazol-1-yl)-3-methylbutyl)picolinamido)propanoic acid] stands 0.5 µM. Under `CCCC(c1ccc(C(=O)NCCC(=O)O)cc1)n1ncc2cc(-c3ccc(C(C)(C)C)cc3)ccc21` (stereo not drawn) [Compound #56, 3-(4-(1-(5-(4-(tert-Butyl)phenyl)-1H-indazol-1-yl)butyl)benzamido)propanoic acid] stands 0.65 µM; under `Cc1c(-c2ccc(C(C)(C)C)cc2)ccc2c1cnn2C(CC(C)C)c1ccc(C(=O)NCCC(=O)O)cc1` (stereo not drawn) [Compound #47, 3-(4-(1-(5-(4-(tert-Butyl)phenyl)-4-methyl-1H-indazol-1-yl)-3-methylbutyl)benzamido)propanoic acid], 0.092 µM; under `Cc1cc2c(cnn2C(CC(C)C)c2ccc(C(=O)NCCC(=O)O)cc2)cc1-c1ccc(C(F)(F)F)cc1` (stereo not drawn) [Compound #25, 3-[[4-[3-Methyl-1-[6-methyl-5-[4-(trifluoromethyl)phenyl]indazol-1-yl]butyl]benzoyl]amino]propanoic acid], 0.102 µM. In the case of `O=C(O)CCNC(=O)c1ccc(C(C2CCCCC2)n2cc3cc(-c4ccc(C(F)(F)F)cc4Cl)ccc3n2)cc1` (stereo not drawn) [compound 98], the Ki came out at 0.083 µM.

Regarding `O=C(O)CCNC(=O)c1ccc(C(CCC(F)(F)F)n2ncc3cc(-c4cc5ccccc5o4)ccc32)cc1` (stereo not drawn) [Compound #11, 3-[[4-[1-[5-(Benzofuran-2-yl)indazol-1-yl]-4,4,4-trifluorobutyl]benzoyl]amino]propanoic acid], the inhibition constant Ki came to 0.175 µM. Under `Cc1cc2nn(C(CC(C)C)c3ccc(C(=O)NCCC(=O)O)nc3)cc2cc1-c1ccc(C(F)(F)F)cc1Cl` (stereo not drawn) [Compound #242, 3-[[5-[1-[5-[2-Chloro-4-(trifluoromethyl)phenyl]-6-methyl-indazol-2-yl]-3-methyl-butyl]pridine-2-carbonyl]amino]propanoic acid] stands 0.065 µM.

For the molecule `CC(C)CCC(c1ccc(C(=O)NCCC(=O)O)cc1)n1cc2cc(-c3ccc(C(F)(F)F)cc3)ccc2n1` (stereo not drawn) [compound 27], the Ki was 0.105 µM. Under `O=C(O)CCNC(=O)c1ccc(C(CCC(F)(F)F)n2ncc3cc(-c4ccc(OC(F)(F)F)cc4)ccc32)cc1` (stereo not drawn) [Compound #76, 3-[[4-[4,4,4-Trifluoro-1-[5-[4-(trifluoromethoxy)phenyl]indazol-1-yl]butyl]benzoyl]amino]propanoic acid] stands 0.7 µM; under `Cc1cc(-c2ccc(C(C)(C)C)cc2)cc2cnn(C(CC(C)C)c3ccc(C(=O)NCCC(=O)O)nc3)c12` (stereo not drawn) [compound 72], > 2.6 µM.

As for `COc1c(-c2ccc(C(F)(F)F)cc2Cl)ccc2nn(C(CC(C)C)c3ccc(C(=O)NCCC(=O)O)cc3)cc12` (stereo not drawn) [Compound #137, 3-(4-(1-(5-(2-Chloro-4-(trifluoromethyl)phenyl)-4-methoxy-2H-indazol-2-yl)-3-methylbutyl)benzamido)propanoic acid], the inhibition constant Ki is 0.022 µM.

For the molecule `CCCCCC(c1ccc(C(=O)NCCC(=O)O)cc1)n1cc2cc(-c3ccc(C(F)(F)F)cc3)ccc2n1` (stereo not drawn) [compound 171], the inhibition constant Ki stood at 0.133 µM.
